The values that follow come from PMC5218480 (PLoS ONE, 2017).

In the experiment the test system is MV-4-11 cells. Put plainly: Gene expression microarray analysis (Affymetrix PrimeView) and GSEA. Details: RFU PODN (11730768_x_at) / Fold change /veh PODN (11730768_x_at) / RFU LINC00158 (11744669_a_at) / Fold change /veh LINC00158 (11744669_a_at) / RFU DUSP10 (11751237_a_at) / Fold change /veh DUSP10 (11751237_a_at) / RFU ID3 (11757404_x_at) / Fold change /veh ID3 (11757404_x_at) / RFU PLEKHG5 (11737974_s_at) / Fold change /veh PLEKHG5 (11737974_s_at) / RFU LRRC4B (11730491_at) / Fold change /veh LRRC4B (11730491_at) / RFU GIMAP4 (11747438_a_at) / Fold change /veh GIMAP4 (11747438_a_at) / RFU KRT8 (11758183_x_at) / Fold change /veh KRT8 (11758183_x_at) / RFU CNN1 (11734310_a_at) / Fold change /veh CNN1 (11734310_a_at) / RFU VPS37D (11726825_at) / Fold change /veh VPS37D (11726825_at) / RFU C10orf10 (11716522_x_at) / Fold change /veh C10orf10 (11716522_x_at) / RFU KIR2DL2 /// KIR2DL4 /// KIR2DL5A /// KIR2DL5B /// KIR2DS1 /// KIR2DS2 /// KIR2DS3 /// KIR2DS4 /// KIR3DL3 /// KIR3DL3 /// KIR3DS1 (11738374_at) / Fold change /veh KIR2DL2 /// KIR2DL4 /// KIR2DL5A /// KIR2DL5B /// KIR2DS1 /// KIR2DS2 /// KIR2DS3 /// KIR2DS4 /// KIR3DL3 /// KIR3DL3 /// KIR3DS1 (11738374_at) / RFU C1QL1 (11718748_at) / Fold change /veh C1QL1 (11718748_at) / RFU TMPRSS4 (11747572_a_at) / Fold change /veh TMPRSS4 (11747572_a_at) / RFU HAMP (11756126_x_at) / Fold change /veh HAMP (11756126_x_at) / RFU RNFT2 (11725882_a_at) / Fold change /veh RNFT2 (11725882_a_at) / RFU NR4A2 (11747474_a_at) / Fold change /veh NR4A2 (11747474_a_at) / RFU ABCC12 (11746883_a_at) / Fold change /veh ABCC12 (11746883_a_at) / RFU TMEM136 (11760407_x_at) / Fold change /veh TMEM136 (11760407_x_at) / RFU CLDN22 /// WWC2 (11732394_at) / Fold change /veh CLDN22 /// WWC2 (11732394_at) / RFU HLA-DPB1 (11760878_x_at) / Fold change /veh HLA-DPB1 (11760878_x_at) / RFU SPINT1 (11716480_a_at) / Fold change /veh SPINT1 (11716480_a_at) / RFU GAP43 (11754022_s_at) / Fold change /veh GAP43 (11754022_s_at) / RFU A4GNT (11735810_at) / Fold change /veh A4GNT (11735810_at) / RFU PRB3 (11715151_x_at) / Fold change /veh PRB3 (11715151_x_at) / RFU TUBB4B (11761932_at) / Fold change /veh TUBB4B (11761932_at) / RFU CAPN14 (11732068_a_at) / Fold change /veh CAPN14 (11732068_a_at) / RFU TMCC2 (11721928_a_at) / Fold change /veh TMCC2 (11721928_a_at) / RFU IRGQ (11745062_a_at) / Fold change /veh IRGQ (11745062_a_at) / RFU FAM174B (11720279_a_at) / Fold change /veh FAM174B (11720279_a_at) / RFU TMPRSS4 (11748680_a_at) / Fold change /veh TMPRSS4 (11748680_a_at) / RFU FAM212B (11763350_a_at) / Fold change /veh FAM212B (11763350_a_at) / RFU PLEKHG5 (11743358_a_at) / Fold change /veh PLEKHG5 (11743358_a_at) / RFU ZSCAN30 (11745921_a_at) / Fold change /veh ZSCAN30 (11745921_a_at) / RFU CMKLR1 (11741424_a_at) / Fold change /veh CMKLR1 (11741424_a_at) / RFU LOC101060620 /// MAPK8IP1 (11723275_at) / Fold change /veh LOC101060620 /// MAPK8IP1 (11723275_at) / RFU SPTSSB (11747773_x_at) / Fold change /veh SPTSSB (11747773_x_at) / RFU PRSS12 (11739890_at) / Fold change /veh PRSS12 (11739890_at) / RFU BIN1 (11741810_x_at) / Fold change /veh BIN1 (11741810_x_at) / RFU WNT11 (11732464_a_at) / Fold change /veh WNT11 (11732464_a_at) / RFU C10orf10 (11716521_a_at) / Fold change /veh C10orf10 (11716521_a_at) / RFU C5orf56 (11738089_at) / Fold change /veh C5orf56 (11738089_at) / RFU CYB561 (11721691_x_at) / Fold change /veh CYB561 (11721691_x_at) / RFU ANKRD19P (11752326_a_at) / Fold change /veh ANKRD19P (11752326_a_at) / RFU OR2T12 /// OR2T33 /// OR2T8 (11738714_s_at) / Fold change /veh OR2T12 /// OR2T33 /// OR2T8 (11738714_s_at) / RFU VCAN (11748164_a_at) / Fold change /veh VCAN (11748164_a_at) / RFU JSRP1 (11732532_at) / Fold change /veh JSRP1 (11732532_at) / RFU KRTAP10-11 (11738290_x_at) / Fold change /veh KRTAP10-11 (11738290_x_at) / RFU MYO3A (11730013_a_at) / Fold change /veh MYO3A (11730013_a_at) / RFU EBF3 (11725865_a_at) / Fold change /veh EBF3 (11725865_a_at) / RFU CAMK2N1 (11719241_x_at) / Fold change /veh CAMK2N1 (11719241_x_at) / RFU C5orf56 (11738088_a_at) / Fold change /veh C5orf56 (11738088_a_at) / RFU OLFML3 (11715873_a_at) / Fold change /veh OLFML3 (11715873_a_at) / RFU LOC100653217 /// NTM (11731650_a_at) / Fold change /veh LOC100653217 /// NTM (11731650_a_at) / RFU MAPK11 (11762145_a_at) / Fold change /veh MAPK11 (11762145_a_at) / RFU FIZ1 (11724087_x_at) / Fold change /veh FIZ1 (11724087_x_at) / RFU OASL (11726364_x_at) / Fold change /veh OASL (11726364_x_at) / RFU SOX15 (11748057_x_at) / Fold change /veh SOX15 (11748057_x_at) / RFU CD79A (11719716_a_at) / Fold change /veh CD79A (11719716_a_at) / RFU HIST1H1D (11736915_at) / Fold change /veh HIST1H1D (11736915_at) / RFU CASKIN2 (11723855_a_at) / Fold change /veh CASKIN2 (11723855_a_at) / RFU LOC730098 (11760151_x_at) / Fold change /veh LOC730098 (11760151_x_at) / RFU OR4N2 (11742367_at) / Fold change /veh OR4N2 (11742367_at) / RFU PRRT2 (11749266_a_at) / Fold change /veh PRRT2 (11749266_a_at) / RFU SNX32 (11753110_a_at) / Fold change /veh SNX32 (11753110_a_at) / RFU CDHR5 (11726645_a_at) / Fold change /veh CDHR5 (11726645_a_at) / RFU RCAN1 (11760418_a_at) / Fold change /veh RCAN1 (11760418_a_at) / RFU FAM167A (11723789_a_at) / Fold change /veh FAM167A (11723789_a_at) / RFU FAM26E (11764081_at) / Fold change /veh FAM26E (11764081_at) / RFU ISYNA1 (11749810_s_at) / Fold change /veh ISYNA1 (11749810_s_at) / RFU ACY1 (11761880_at) / Fold change /veh ACY1 (11761880_at) / RFU 11764098_at / Fold change /veh 11764098_at / RFU SAMD14 (11745864_x_at) / Fold change /veh SAMD14 (11745864_x_at) / RFU NPB (11741838_a_at) / Fold change /veh NPB (11741838_a_at) / RFU TMPRSS6 (11731388_a_at) / Fold change /veh TMPRSS6 (11731388_a_at) / RFU KRTAP10-2 (11738614_at) / Fold change /veh KRTAP10-2 (11738614_at) / RFU ARHGAP8 /// PRR5-ARHGAP8 (11727945_x_at) / Fold change /veh ARHGAP8 /// PRR5-ARHGAP8 (11727945_x_at) / RFU KRTAP5-7 /// NADSYN1 (11734609_at) / Fold change /veh KRTAP5-7 /// NADSYN1 (11734609_at) / RFU RASL12 (11751679_a_at) / Fold change /veh RASL12 (11751679_a_at) / RFU CDKN2B (11736163_a_at) / Fold change /veh CDKN2B (11736163_a_at) / RFU PRF1 (11729649_at) / Fold change /veh PRF1 (11729649_at) / RFU, ZNF638 /// ZNF638-IT1 / Fold change vs veh, ZNF638 /// ZNF638-IT1 / RFU, PANK3 / Fold change vs veh, PANK3 / RFU, SH3YL1 / Fold change vs veh, SH3YL1 / RFU, ZEB2 / Fold change vs veh, ZEB2 / RFU, NRIP1 / Fold change vs veh, NRIP1 / RFU, PTTG1IP / Fold change vs veh, PTTG1IP / RFU, CAPN2 / Fold change vs veh, CAPN2 / RFU, MED14 / Fold change vs veh, MED14 / RFU, SNORA58 / Fold change vs veh, SNORA58 / RFU, C1orf63 / Fold change vs veh, C1orf63 / RFU, LRRFIP1 / Fold change vs veh, LRRFIP1 / RFU, NDUFAF7 / Fold change vs veh, NDUFAF7 / RFU, SLC12A2 / Fold change vs veh, SLC12A2 / RFU, IBTK / Fold change vs veh, IBTK / RFU, ESF1 / Fold change vs veh, ESF1 / Fold change vs veh, TMEM50B / RFU, TAOK1 / Fold change vs veh, TAOK1 / RFU, ACBD3 / Fold change vs veh, ACBD3 / RFU, TMA16 / Fold change vs veh, TMA16 / RFU, RWDD3 / Fold change vs veh, RWDD3 / RFU, BCAT1 / Fold change vs veh, BCAT1 / RFU, EDEM3 / Fold change vs veh, EDEM3 / RFU, TMEM33 / Fold change vs veh, TMEM33 / RFU, WDR75 / Fold change vs veh, WDR75 / RFU, AHCTF1 / Fold change vs veh, AHCTF1 / RFU, TFRC / Fold change vs veh, TFRC / RFU, ZDHHC17 / Fold change vs veh, ZDHHC17 / RFU, NOM1 / Fold change vs veh, NOM1 / RFU, ARL8B / Fold change vs veh, ARL8B / RFU, ZBTB11 / Fold change vs veh, ZBTB11 / RFU, TAMM41 / Fold change vs veh, TAMM41 / RFU, KIAA1704 /// LOC100996395 / Fold change vs veh, KIAA1704 /// LOC100996395 / RFU, ING1 / Fold change vs veh, ING1 / RFU, TRMT61B / Fold change vs veh, TRMT61B / RFU, FUBP3 / Fold change vs veh, FUBP3 / RFU, TP53 / Fold change vs veh, TP53 / RFU, TNKS2 / Fold change vs veh, TNKS2 / RFU, ZFP14 / Fold change vs veh, ZFP14 / RFU, ACTR2 / Fold change vs veh, ACTR2 / RFU, PPP3R1 / Fold change vs veh, PPP3R1 / RFU, PIK3R1 / Fold change vs veh, PIK3R1 / RFU, HNRNPA1 / Fold change vs veh, HNRNPA1 / RFU, RNF170 / Fold change vs veh, RNF170 / RFU, ZNF28 / Fold change vs veh, ZNF28 / RFU, RNGTT / Fold change vs veh, RNGTT / RFU, OGT / Fold change vs veh, OGT / RFU, BRD1 / Fold change vs veh, BRD1 / RFU, MARS / Fold change vs veh, MARS / RFU, ZNF655 / Fold change vs veh, ZNF655 / RFU, FAHD1 / Fold change vs veh, FAHD1 / RFU, BDP1 / Fold change vs veh, BDP1 / RFU, LRRCC1 / Fold change vs veh, LRRCC1 / RFU, ARID1A / Fold change vs veh, ARID1A / RFU, ZNF146 / Fold change vs veh, ZNF146 / RFU, ZNF330 / Fold change vs veh, ZNF330 / RFU, GPN3 / Fold change vs veh, GPN3 / RFU, C9orf123 / Fold change vs veh, C9orf123 / RFU, N4BP2L2 / Fold change vs veh, N4BP2L2 / RFU, ARFIP1 / Fold change vs veh, ARFIP1 / RFU, FAM179B / Fold change vs veh, FAM179B / RFU, BCL10 / Fold change vs veh, BCL10 / RFU, UHRF1BP1L / Fold change vs veh, UHRF1BP1L / RFU, BET1 / Fold change vs veh, BET1 / RFU, CNOT2 / Fold change vs veh, CNOT2 / RFU, ZNF268 / Fold change vs veh, ZNF268 / Fold change vs veh, ZNF507 / RFU, DGCR2 / Fold change vs veh, DGCR2 / RFU, WDSUB1 / Fold change vs veh, WDSUB1 / Fold change vs veh, HSP90B1 /// MIR3652 / RFU, ADSS / Fold change vs veh, ADSS / RFU, GK / Fold change vs veh, GK / RFU, ZNF148 / Fold change vs veh, ZNF148 / RFU, TAF9 / Fold change vs veh, TAF9 / RFU, SLC1A5 / Fold change vs veh, SLC1A5 / RFU, SLMO2 / Fold change vs veh, SLMO2 / RFU, ABCC4 / Fold change vs veh, ABCC4 / RFU, LOC101060439 /// RAP1B / Fold change vs veh, LOC101060439 /// RAP1B / RFU, RFX7 / Fold change vs veh, RFX7 / RFU, GTPBP10 / Fold change vs veh, GTPBP10 / RFU, CNEP1R1 / Fold change vs veh, CNEP1R1 / RFU, BIVM-ERCC5 /// ERCC5 / Fold change vs veh, BIVM-ERCC5 /// ERCC5 / RFU, ILF3 / Fold change vs veh, ILF3 / RFU 11762660_at / Fold change /veh 11762660_at / RFU VCAN (11757783_s_at) / Fold change /veh VCAN (11757783_s_at) / RFU DDX43 (11728927_at) / Fold change /veh DDX43 (11728927_at) / RFU KRT8 (11758188_x_at) / Fold change /veh KRT8 (11758188_x_at) / RFU NKD1 (11759106_at) / Fold change /veh NKD1 (11759106_at) / RFU SRD5A1 (11742802_a_at) / Fold change /veh SRD5A1 (11742802_a_at) / RFU TPSAB1 /// TPSB2 (11721975_s_at) / Fold change /veh TPSAB1 /// TPSB2 (11721975_s_at) / RFU GSTM3 (11746129_a_at) / Fold change /veh GSTM3 (11746129_a_at) / RFU IL23R (11737362_x_at) / Fold change /veh IL23R (11737362_x_at) / RFU TMEM51 (11727254_a_at) / Fold change /veh TMEM51 (11727254_a_at) / RFU PIWIL2 (11732686_x_at) / Fold change /veh PIWIL2 (11732686_x_at) / RFU ORM1 (11744905_x_at) / Fold change /veh ORM1 (11744905_x_at) / RFU CCDC152 (11743942_at) / Fold change /veh CCDC152 (11743942_at) / RFU ECM1 (11717891_a_at) / Fold change /veh ECM1 (11717891_a_at) / RFU IL23R (11748794_a_at) / Fold change /veh IL23R (11748794_a_at) / RFU TNFAIP8L3 (11732012_x_at) / Fold change /veh TNFAIP8L3 (11732012_x_at) / RFU MBOAT4 (11741988_at) / Fold change /veh MBOAT4 (11741988_at) / RFU 11764193_at / Fold change /veh 11764193_at / RFU TMEM53 (11763286_at) / Fold change /veh TMEM53 (11763286_at) / RFU MAGEB2 (11727129_at) / Fold change /veh MAGEB2 (11727129_at) / RFU TMEM200A (11744735_a_at) / Fold change /veh TMEM200A (11744735_a_at) / RFU CCDC152 (11751479_a_at) / Fold change /veh CCDC152 (11751479_a_at) / RFU FAM211A (11726209_a_at) / Fold change /veh FAM211A (11726209_a_at) / RFU RGS16 (11746705_a_at) / Fold change /veh RGS16 (11746705_a_at) / RFU VCAN (11755009_s_at) / Fold change /veh VCAN (11755009_s_at) / RFU RHOB (11743442_s_at) / Fold change /veh RHOB (11743442_s_at) / RFU RGS16 (11720943_a_at) / Fold change /veh RGS16 (11720943_a_at) / RFU RGS16 (11720944_at) / Fold change /veh RGS16 (11720944_at) / RFU, VPS4B / Fold change vs veh, VPS4B / RFU, CREB1 / Fold change vs veh, CREB1 / RFU, DNAJC13 / Fold change vs veh, DNAJC13 / RFU, GNAQ / Fold change vs veh, GNAQ / RFU, CDK5R1 / Fold change vs veh, CDK5R1 / RFU, ZRANB3 / Fold change vs veh, ZRANB3 / RFU, CUL4A / Fold change vs veh, CUL4A / RFU, CCNY / Fold change vs veh, CCNY / RFU, UFL1 / Fold change vs veh, UFL1 / RFU, COG3 / Fold change vs veh, COG3 / RFU, DIAPH2 / Fold change vs veh, DIAPH2 / RFU, SKA2 / Fold change vs veh, SKA2 / RFU, AFF3 / Fold change vs veh, AFF3 / RFU, LMF1 / Fold change vs veh, LMF1 / RFU, IPO11 / Fold change vs veh, IPO11 / RFU, DFFB / Fold change vs veh, DFFB / RFU, FOXP1 / Fold change vs veh, FOXP1 / RFU, CARD8 / Fold change vs veh, CARD8 / RFU, STRN3 / Fold change vs veh, STRN3 / RFU, ADK / Fold change vs veh, ADK / RFU, RASSF2 / Fold change vs veh, RASSF2 / RFU, WIPF1 / Fold change vs veh, WIPF1 / RFU, LARP1B / Fold change vs veh, LARP1B / RFU, RASA1 / Fold change vs veh, RASA1 / RFU, RB1 / Fold change vs veh, RB1 / RFU, PPFIA1 / Fold change vs veh, PPFIA1 / RFU, MAT2A / Fold change vs veh, MAT2A / RFU, CCT5 / Fold change vs veh, CCT5 / RFU, WDR92 / Fold change vs veh, WDR92 / RFU, CUX1 / Fold change vs veh, CUX1 / RFU, TTC7A / Fold change vs veh, TTC7A / RFU, TMEM135 / Fold change vs veh, TMEM135 / RFU, DEPTOR / Fold change vs veh, DEPTOR / RFU, CPM / Fold change vs veh, CPM / RFU, DNAJB6 / Fold change vs veh, DNAJB6 / RFU, CACNA2D3 / Fold change vs veh, CACNA2D3 / RFU, DTX4 / Fold change vs veh, DTX4 / RFU, TFCP2 / Fold change vs veh, TFCP2 / RFU, GMCL1 /// GMCL1P1 / Fold change vs veh, GMCL1 /// GMCL1P1 / RFU, AEBP2 / Fold change vs veh, AEBP2 / RFU, SNHG1 /// SNORD22 /// SNORD25 /// SNORD26 /// SNORD27 /// SNORD28 /// SNORD29 /// SNORD31 / Fold change vs veh, SNHG1 /// SNORD22 /// SNORD25 /// SNORD26 /// SNORD27 /// SNORD28 /// SNORD29 /// SNORD31 / Fold change (Aza/veh), C12orf56 (ProbeSet 11735607_a_at) / Fold change (ACY-1035/veh), C12orf56 (ProbeSet 11735607_a_at) / Fold change (Aza/veh), FGFR1OP (ProbeSet 11751329_s_at) / Fold change (ACY-1035/veh), FGFR1OP (ProbeSet 11751329_s_at) / Fold change (Aza/veh), VPS36 (ProbeSet 11739960_a_at) / Fold change (ACY-1035/veh), VPS36 (ProbeSet 11739960_a_at) / RFU SYPL1 (11715823_x_at) / Fold change /veh SYPL1 (11715823_x_at) / RFU IGFBP7 (11715501_s_at) / Fold change /veh IGFBP7 (11715501_s_at) / RFU REEP3 (11722064_at) / Fold change /veh REEP3 (11722064_at) / RFU IGLL1 (11728026_x_at) / Fold change /veh IGLL1 (11728026_x_at): dose or concentration left out as unconfirmed. In kind it is cell-based, human. The note with it: ProbeSet 11733831_s_at; LIST D.

Molecules are shown by their SMILES.

For the compound `Nc1ccc(-c2cccs2)cc1NC(=O)c1ccc2c(c1)cc(C1CC1)n2CCN1CCOCC1` [ACY-1035], the “Fold change vs veh, GMCL1 /// GMCL1P1” value was 0.86.
